Reference: US11053213B2, “Pharmaceutical compounds” (ALMAC DISCOVERY LIMITED, priority 2016, dated 2021)

Target: USP19 (Homo sapiens (Human), UniProt O94966)
Assay: USP19 activity assay (fluorescence polarisation, Ubiquitin-Lys-TAMRA substrate)
Assay type: biochemical
Settings: full-length USP19 2.5 nM, 30 min pre-incubation, Ub substrate 500 nM; average of at least two duplicate experiments

Sequence of USP19 (O94966 whole entry): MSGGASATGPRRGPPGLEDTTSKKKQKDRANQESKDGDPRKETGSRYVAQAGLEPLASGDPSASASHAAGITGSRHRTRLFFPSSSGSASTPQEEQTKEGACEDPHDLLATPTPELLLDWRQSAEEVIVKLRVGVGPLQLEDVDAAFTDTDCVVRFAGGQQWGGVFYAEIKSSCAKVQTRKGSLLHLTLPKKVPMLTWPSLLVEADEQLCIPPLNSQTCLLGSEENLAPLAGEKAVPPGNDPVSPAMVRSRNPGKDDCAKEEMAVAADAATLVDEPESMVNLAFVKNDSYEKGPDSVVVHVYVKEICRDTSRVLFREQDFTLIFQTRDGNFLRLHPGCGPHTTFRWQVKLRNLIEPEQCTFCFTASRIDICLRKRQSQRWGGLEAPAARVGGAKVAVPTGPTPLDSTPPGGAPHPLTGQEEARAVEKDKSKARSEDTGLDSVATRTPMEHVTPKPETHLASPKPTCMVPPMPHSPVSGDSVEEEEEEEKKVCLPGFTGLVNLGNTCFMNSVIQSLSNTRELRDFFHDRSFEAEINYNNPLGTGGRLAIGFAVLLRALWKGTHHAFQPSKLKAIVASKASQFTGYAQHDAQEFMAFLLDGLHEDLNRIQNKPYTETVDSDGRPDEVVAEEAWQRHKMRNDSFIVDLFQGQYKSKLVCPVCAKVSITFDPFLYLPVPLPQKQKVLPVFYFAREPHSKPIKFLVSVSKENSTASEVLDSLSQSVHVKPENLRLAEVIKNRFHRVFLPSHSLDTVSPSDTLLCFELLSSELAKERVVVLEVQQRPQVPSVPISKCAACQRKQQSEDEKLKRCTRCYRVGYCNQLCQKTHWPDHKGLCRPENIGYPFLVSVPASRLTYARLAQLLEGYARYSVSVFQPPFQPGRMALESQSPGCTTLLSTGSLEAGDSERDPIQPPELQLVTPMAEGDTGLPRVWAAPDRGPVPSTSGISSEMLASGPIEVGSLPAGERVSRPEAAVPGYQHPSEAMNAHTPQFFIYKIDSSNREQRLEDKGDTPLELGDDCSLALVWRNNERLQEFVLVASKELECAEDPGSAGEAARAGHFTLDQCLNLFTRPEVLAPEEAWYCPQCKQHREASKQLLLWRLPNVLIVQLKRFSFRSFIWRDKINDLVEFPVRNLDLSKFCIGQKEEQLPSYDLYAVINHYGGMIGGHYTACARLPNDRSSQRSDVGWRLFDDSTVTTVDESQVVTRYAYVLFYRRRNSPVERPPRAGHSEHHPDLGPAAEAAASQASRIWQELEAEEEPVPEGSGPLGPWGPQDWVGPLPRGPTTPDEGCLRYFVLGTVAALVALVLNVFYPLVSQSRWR

Compound | IC50
C[C@H](CC1CCCCC1)C(=O)N1CCC(O)(Cn2cnc(-c3cncnc3)cc2=O)C(C)(C)C1 (stereo partly drawn) [Example 130, 1-((1-((R)-3-Cyclohexyl-2-methylpropanoyl)-4-hydroxy-3,3-dimethylpiperidin-4-yl)methyl)-[4,5′-bipyrimidin]-6(1H)-one] | 0.5 to 5 µM
CN(C)C(=O)c1cn(CC2(O)CCN(C(=O)c3ncoc3C3CC3)CC23CCCC3)c(=O)cc1-c1ccccc1 (centres unmarked) [Example 193, 1-((7-(5-Cyclopropyloxazole-4-carbonyl)-10-hydroxy-7-azaspiro[4.5]decan-10-yl)methyl)-N,N-dimethyl-6-oxo-4-phenyl-1,6-dihydropyridine-3-carboxamide] | 5 to 50 µM
C[C@H](CC1CCCCC1)C(=O)N1CC[C@@](O)(Cn2cc(C(=O)N(C)C)c(-c3ccccc3)cc2=O)C2(CCCC2)C1 [Example 211, 1-(((S)-7-((R)-3-Cyclohexyl-2-methylpropanoyl)-10-hydroxy-7-azaspiro[4.5]decan-10-yl)methyl)-N,N-dimethyl-6-oxo-4-phenyl-1,6-dihydropyridine-3-carboxamide] | < 0.5 µM
CCOCCC(=O)N1CCC(O)(Cn2cc(C(=O)N(C)C)c(-c3ccccc3)cc2=O)C2(CCCC2)C1 (centres unmarked) [Example 182, 1-((7-(3-Ethoxypropanoyl)-10-hydroxy-7-azaspiro[4.5]decan-10-yl)methyl)-N,N-dimethyl-6-oxo-4-phenyl-1,6-dihydropyridine-3-carboxamide] | 5 to 50 µM
CC(CC(F)F)C(=O)N1CCC(O)(Cn2cc(C(=O)N(C)C)c(-c3ccccc3)cc2=O)C2(CCCC2)C1 (centres unmarked) [Example 243, 1-((7-(4,4-Difluoro-2-methylbutanoyl)-10-hydroxy-7-azaspiro[4.5]decan-10-yl)methyl)-N,N-dimethyl-6-oxo-4-phenyl-1,6-dihydropyridine-3-carboxamide] | 5 to 50 µM
O=C(CCc1ccc(F)cc1)N1CCC(O)(Cn2cnc(-c3ccccc3F)cc2=O)CC1 [Example 82, 6-(2-Fluorophenyl)-3-((1-(3-(4-fluorophenyl)propanoyl)-4-hydroxypiperidin-4-yl)methyl)pyrimidin-4(3H)-one] | 50 to 250 µM
C[C@H](CC1CCCCC1)C(=O)N1CC[C@@](O)(Cn2cc(C(=O)N3CCNCC3)c(-c3ccccc3)cc2=O)C2(CCCC2)C1 [Example 212, 1-(((S)-7-((R)-3-Cyclohexyl-2-methylpropanoyl)-10-hydroxy-7-azaspiro[4.5]decan-10-yl)methyl)-4-phenyl-5-(piperazine-1-carbonyl)pyridin-2(1H)-one] | < 0.5 µM
CN(C)C(=O)c1cn(CC2(O)CCN(C(=O)C(C)(C)CC(F)F)CC23CCCC3)c(=O)cc1-c1ccccc1 (centres unmarked) [Example 244, 1-((7-(4,4-Difluoro-2,2-dimethylbutanoyl)-10-hydroxy-7-azaspiro[4.5]decan-10-yl)methyl)-N,N-dimethyl-6-oxo-4-phenyl-1,6-dihydropyridine-3-carboxamide] | 5 to 50 µM
CN(C)C(=O)c1cn(CC2(O)CCN(C(=O)[C@@H]3C[C@@H]3c3ccccc3)CC23CCCC3)c(=O)cc1-c1ccccc1 (stereo partly drawn) [Example 174, 1-((10-Hydroxy-7-((1R,2S)-2-phenylcyclopropane-1-carbonyl)-7-azaspiro[4.5]decan-10-yl)methyl)-N,N-dimethyl-6-oxo-4-phenyl-1,6-dihydropyridine-3-carboxamide] | < 0.5 µM
C[C@H](CC(=O)N1CCC(O)(Cn2cc(C(=O)N3CCC4(CC3)OCCO4)c(-c3ccccc3)cc2=O)CC1)c1ccccc1 [Example 64, (R)-1-((4-Hydroxy-1-(3-phenylbutanoyl)piperidin-4-yl)methyl)-4-phenyl-5-(1,4-dioxa-8-azaspiro[4.5]decane-8-carbonyl)pyridin-2(1H)-one] | 5 to 50 µM
O=C(c1cn(C[C@]2(O)CCN(C(=O)C(CC(F)(F)F)CC(F)(F)F)CC23CCCC3)c(=O)cc1-c1ccccc1)N1CCNCC1 [Example 219, (S)-1-((10-Hydroxy-7-(4,4,4-trifluoro-2-(2,2,2-trifluoroethyl)butanoyl)-7-azaspiro[4.5]decan-10-yl)methyl)-4-phenyl-5-(piperazine-1-carbonyl)pyridin-2(1H)-one] | 0.5 to 5 µM
C[C@@H](CC(=O)N1CCC(O)(Cn2cc(C(=O)N(C)C)c(-c3ccccc3)cc2=O)C2(CCCC2)C1)c1ccccc1 (stereo partly drawn) [Example 183, 1-((10-Hydroxy-7-((S)-3-phenylbutanoyl)-7-azaspiro[4.5]decan-10-yl)methyl)-N,N-dimethyl-6-oxo-4-phenyl-1,6-dihydropyridine-3-carboxamide] | 5 to 50 µM
CC1(C(=O)N2CCC(O)(Cn3cnc(-c4ccccc4F)cc3=O)C(C)(C)C2)CCCCC1 (racemic) [Example 81, (R,S)-6-(2-Fluorophenyl)-3-((4-hydroxy-3,3-dimethyl-1-(1-methylcyclohexane-1-carbonyl)piperidin-4-yl)methyl)pyrimidin-4(3H)-one] | 50 to 250 µM
CC(C)N(C)C(=O)c1cn(CC2(O)CCN(C(=O)C3(c4cccs4)CC3)CC2)c(=O)cc1-c1ccccc1 [Example 72, 1-((4-Hydroxy-1-(1-(thiophen-2-yl)cyclopropane-1-carbonyl)piperidin-4-yl)methyl)-N-isopropyl-N-methyl-6-oxo-4-phenyl-1,6-dihydropyridine-3-carboxamide] | 50 to 250 µM
C[C@H](CC(=O)N1CCC(O)(Cn2cc(CN(C)C)c(-c3ccccc3)cc2=O)CC1)c1ccccc1 [Example 46, (R)-5-((Dimethylamino)methyl)-1-((4-hydroxy-1-(3-phenylbutanoyl)piperidin-4-yl)methyl)-4-phenylpyridin-2(1H)-one] | 50 to 250 µM
COc1cc(=O)n(CC2(O)CCN(C(=O)[C@H](C)CC3CCCCC3)CC23CCCC3)cc1C(=O)N(C)C (stereo partly drawn) [Example 242, 1-((7-((R)-3-Cyclohexyl-2-methylpropanoyl)-10-hydroxy-7-azaspiro[4.5]decan-10-yl)methyl)-4-methoxy-N,N-dimethyl-6-oxo-1,6-dihydropyridine-3-carboxamide] | 0.5 to 5 µM
C[C@H](CC1CCC1)C(=O)N1CC[C@@](O)(Cn2cc(C(=O)N3CCNCC3)c(-c3ccccc3)cc2=O)C2(CCCC2)C1 [Example 215, 1-(((S)-7-((R)-3-Cyclobutyl-2-methylpropanoyl)-10-hydroxy-7-azaspiro[4.5]decan-10-yl)methyl)-4-phenyl-5-(piperazine-1-carbonyl)pyridin-2(1H)-one] | < 0.5 µM
C[C@H](CC(=O)N1CCC(O)(Cn2cc(Br)c(-c3ccccc3)cc2=O)CC1)c1ccccc1 [Example 1, (R)-5-Bromo-1-((4-hydroxy-1-(3-phenylbutanoyl)piperidin-4-yl)methyl)-4-phenylpyridin-2(1H)-one] | 50 to 250 µM
CN(C)C(=O)c1cn(CC2(O)CCN(C(=O)[C@H](COCc3ccccc3)CC3CCCCC3)CC2(C)C)c(=O)cc1-c1ccccc1 (stereo partly drawn) [Example 146, 1-((1-((S)-3-(Benzyloxy)-2-(cyclohexylmethyl)propanoyl)-4-hydroxy-3,3-dimethylpiperidin-4-yl)methyl)-N,N-dimethyl-6-oxo-4-phenyl-1,6-dihydropyridine-3-carboxamide] | 0.5 to 5 µM
CN(C)C(=O)c1cn(CC2(O)CCN(C(=O)CCC(F)(F)F)CC23CCCC3)c(=O)cc1-c1ccccc1 (centres unmarked) [Example 172, 1-((10-Hydroxy-7-(4,4,4-trifluorobutanoyl)-7-azaspiro[4.5]decan-10-yl)methyl)-N,N-dimethyl-6-oxo-4-phenyl-1,6-dihydropyridine-3-carboxamide] | 5 to 50 µM
